# Data as given in patent publication US8884030B2, “Inhibitors of Flaviviridae viruses” (priority 2010, dated 2014).
# System: human hepatoma Huh-7 cell line harboring a HCV replicon
# Assay: HCV replicon assay (inhibition of viral replication, luciferase)
# Assay type: cell-based
# Conditions: Hepatitis C virus, 72 h; 2 μM; Huh-7 HCV replicon cells, 3 days incubation; inhibition of viral replication; read-out: % inhibition at 2 μM
# Experimental: The anti-HCV activity of the compounds of this invention was tested in a human hepatoma Huh-7 cell line harboring a HCV replicon. The assay comprised the following steps:
# Step 1: Compound Preparation and Serial Dilution.
# Serial dilution was performed in 100% DMSO in a 384-well plate. A solution containing a compound at 225-fold concentration of the starting final serial dilution concentration was prepared in 100% DMSO and 15 uL added to the pre-specified wells in column 3 or 13 of a polypropylene 384-well plate. The rest of the 384-well plate was filled with 10 uL 100% DMSO except for columns 23 and 24, where 10 uL of 500 uM a HCV protease inhibitor (ITMN-191) in 100% DMSO was added. The HCV protease inhibitor was used a control of 100% inhibition of HCV replication. The plate was then placed on a Biomek FX Workstation to start the serial dilution. The serial dilution was performed for ten cycles of 3-fold dilution from column 3 to 12 or from column 13 to 22.
# Step 2: Cell Culture Plate Preparation and Compound Addition
# To each well of a black polypropylene 384-well plate, 90 μL of cell media containing 1600 suspended Huh-7 HCV replicon cells was added with a Biotek uFlow Workstation. A volume of 0.4 μL of the compound solution was transferred from the serial dilution plate to the cell culture plate on a Biomek FX Workstation. The DMSO concentration in the final assay condition was 0.44%. The plates were incubated for 3 days at 37° C. with 5% CO2 and 85% humidity.
# Step 3: Detection of Cytotoxicity and Inhibition of Viral Replication
# a) Assessment of cytotoxicity: The media in the 384-well cell culture plate was aspirated with a Biotek EL405 plate-washer. A volume of 50 μL of a solution containing 400 nM Calcein AM in 100% PBS was added to each well of the plate with a Biotek uFlow Workstation. The plate was incubated for 30 minutes at room temperature before the fluorescence signal ([…]) was measured with a Perkin Elmer Envision Plate Reader.
# b) Assessment of inhibition of viral replication: The calcein-PBS solution in the 384-well cell culture plate was aspirated with a Biotek EL405 plate-washer. A volume of 20 μL of Dual-Glo luciferase buffer (Promega, Dual-Glo Luciferase Assay Reagent, cat. #E298B) was added to each well of the plate with a Biotek uFlow Workstation. The plate was incubated for 10 minutes at room temperature. A volume of 20 μL of a solution containing 1:100 mixture of Dual-Glo Stop & Glo substrate(Promega, Dual-Glo Luciferase Assay Reagent, cat. #E313B) and Dual-Glo Stop & Glo buffer (Promega, Dual-Glo Luciferase Assay Reagent, cat. #E314B) was then added to each well of the plate with a Biotek uFlow Workstation. The plate was incubated at room temperature for 10 minutes before the luminescence signal was measured with a Perkin Elmer Envision Plate Reader.
# The percent cytotoxicity was determined by calcein AM conversion to fluorescent product. The average fluorescent signal from the DMSO control wells were defined as 100% nontoxic. The individual fluorescent signal from testing compound treated well was divided by the average signal from DMSO control wells and then multiplied by 100% to get the percent viability. The percent anti-HCV replication activity was determined by the luminescence signal from the testing well compared to DMSO controls wells. The background signal was determined by the average luminescence signal from the HCV protease inhibitor treated wells and was subtracted from the signal from the testing wells as well as the DMSO control wells. Following 3-fold serial dilutions, the EC50 and CC50 values were calculated by fitting % inhibition at each concentration to the following equation: % inhibition=100%[(EC50/[l])^b+1]
# Where b is Hill's coefficient. See, for reference, Hill, A. V., The Possible Effects of the Aggregation of the Molecules of Hæmoglobin on its Dissociation Curves, J. Physiol. 40: iv-vii. (1910). […]
row,SMILES,inhibition at 2 µM
1,"CC(C)(C)C#Cc1cc(N(C(=O)[C@H]2CC[C@H](C)CC2)[C@H]2CCN(C(=O)OC3(C)CCN(C(=O)OC(C)(C)C)C3)C2)c(C(=O)O)s1 (stereo in doubt) [Compound 67, 3-(S)-{3-[[2-Carboxy-5-(3,3-dimethyl-but-1-ynyl)-thiophene-3-yl](trans-4-methyl-cyclohexanecarbonyl)-amino]-pyrrolidine-1-carbonyloxy}-3-methyl-pyrrolidine-1-carboxylic acid tert-butyl ester]",99%
2,"CC(C)(C)C#Cc1cc(N(C(=O)[C@H]2CC[C@H](C)CC2)C2CCN(C(=O)OC3CCNCC3)CC2)c(C(=O)O)s1 [Compound 31, 4-[[2-carboxy-5-(3,3-dimethyl-but-1-ynyl)-thiophen-3-yl]-(4-trans-methyl-cyclohexanecarbonyl)-amino]-piperidine-1-carboxylic acid piperidin-4-yl ester]",93.1%
3,"CC(C)(C)C#Cc1cc(N(C(=O)[C@H]2CC[C@H](C)CC2)C2CCC(NC(=O)OC3CCOCC3)CC2)c(C(=O)O)s1 (stereo partly drawn) [Compound 32, 5-(3,3-dimethyl-but-1-ynyl)-3-{(4-trans-methyl-cyclohexanecarbonyl)-[4-(tetrahydro-pyran-4-yloxycarbonylamino)-cyclohexyl]-amino}-thiophene-2-carboxylic acid]",100%
4,"CC(C)(C)C#Cc1cc(N(C(=O)[C@H]2CC[C@H](C)CC2)[C@H]2CCN(C(=O)O[C@@H]3CNC(=O)C3)C2)c(C(=O)O)s1 [Compound 33, 3-(S)-[[2-carboxy-5-(3,3-dimethyl-but-1-ynyl)-thiophen-3-yl]-(4-trans-methyl-cyclohexanecarbonyl)-amino]-pyrrolidine-1-carboxylic acid 5-oxo-pyrrolidin-3-(S)-yl ester]",96.2%
5,"CC(C)(C)C#Cc1cc(N(C(=O)[C@H]2CC[C@H](C)CC2)[C@H]2CCN(C(=O)O[C@H]3CNC(=O)C3)C2)c(C(=O)O)s1 [Compound 34, 3-(S)-[[2-carboxy-5-(3,3-dimethyl-but-1-ynyl)-thiophen-3-yl]-(4-trans-methyl-cyclohexanecarbonyl)-amino]-pyrrolidine-1-carboxylic acid 5-oxo-pyrrolidin-3-(R)-yl ester]",97.8%
6,"CC(C)(C)C#Cc1cc(N(C(=O)[C@H]2CC[C@H](C)CC2)[C@H]2CCN(C(=O)O[C@H]3CO[C@H]4OCC[C@H]43)C2)c(C(=O)O)s1 [Compound 35, 3-(S)-[[2-Carboxy-5-(3,3-dimethyl-but-1-ynyl)-thiophen-3-yl]-(4-methyl-cyclohexanecarbonyl)-amino]-pyrrolidine-1-carboxylic acid hexahydro-furo[2,3-b]furan-3-(R)-yl ester]",99.8%
7,"CC(C)(C)C#Cc1cc(N(C(=O)[C@H]2CC[C@H](C)CC2)C2CCN(C(=O)O[C@H]3CO[C@H]4OCC[C@H]43)CC2)c(C(=O)O)s1 [Compound 36, 4-[[2-carboxy-5-(3,3-dimethyl-but-1-ynyl)-thiophen-3-yl]-(4-methyl-cyclohexanecarbonyl)-amino]-piperidine-1-carboxylic acid hexahydro-furo[2,3-b]furan-3-(R)-yl ester]",100%
8,"CC(C)(C)C#Cc1cc(N(C(=O)[C@H]2CC[C@H](C)CC2)[C@H]2CCN(C(=O)O[C@@H]3CCCN(C(=O)OC(C)(C)C)C3)C2)c(C(=O)O)s1 [Compound 37, 3-(R)-{3-(S)-[[2-carboxy-5-(3,3-dimethyl-but-1-ynyl)-thiophen-3-yl]-(4-trans-methyl-cyclohexanecarbonyl)-amino]-pyrrolidine-1-carbonyloxy}-piperidine-1-carboxylic acid tert-butyl ester]",99.6%
9,"CC(C)(C)C#Cc1cc(N(C(=O)[C@H]2CC[C@H](C)CC2)[C@H]2CCN(C(=O)O[C@@H]3CCCNC3)C2)c(C(=O)O)s1 [Compound 38, 3-(S)-[[2-carboxy-5-(3,3-dimethyl-but-1-ynyl)-thiophen-3-yl]-(4-trans-methyl-cyclohexanecarbonyl)-amino]-pyrrolidine-1-carboxylic acid piperidin-3-(R)-yl ester]",99.6%
